Some test systems named below: A549; HCC 2998; HCT-15; IGROV-1; KM12; LOX IMVI; Malme-3M; NCI-H226; OVCAR-5; OVCAR-8; SK-OV-3; SN12C; SNB-19; SW-620; SNB-75.
Holding throughout (test): NCI tumour cell line growth inhibition, 48 h

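Exposure lasted 48 hours, with cells grown in 96-well plates and compounds tested at five concentrations. GI50 = concentration required for 50% inhibition of growth.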 Activity calls are given as the source filed them. Cut-off read from the data, not from the text of the source: active = GI50 up to about 1.1 µM and inactive = higher.

In the case of `COC(=O)C(/C(=N/N)C(=O)Nc1cc(Cl)ccc1Cl)c1nc2ccc([N+](=O)[O-])cc2nc1O` (configuration not stated), the GI50 in the experiment on A549 is > 100 µM (inactive); in the experiment on HCC 2998, 74.6 µM (inactive); in the experiment with HCT-15, 76.4 µM; in the experiment on IGROV-1, > 100 µM (inactive); with KM12, > 100 µM (inactive); with LOX IMVI, > 100 µM (inactive). Also, the GI50 with Malme-3M, with NCI-H226, in the experiment on OVCAR-5, in the experiment on OVCAR-8, in the experiment with SK-OV-3 and with SN12C was > 100 µM (inactive) in each case. Moreover, the GI50 with SNB-19 and in the experiment with SW-620 was > 100 µM (inactive) throughout.
For the molecule `CC(C)C1CCC/C=C/C=C/C=C/C=C/C(OC2OC(C)C(O)C(N)C2O)CC2OC(O)(CC(O)CC(O)C(O)CCC(=O)O1)CC(O)C2C(=O)O` (configuration not stated), the GI50 was > 52.5 µM (inactive) in the experiment with A549; greater than 52.5 µM in the experiment with HCT-15; > 52.5 µM (inactive) with IGROV-1; > 52.5 µM (inactive) in the experiment on Malme-3M; > 52.5 µM (inactive) in the experiment on OVCAR-8; > 52.5 µM (inactive) in the experiment with SK-OV-3. The GI50 with SN12C, in the experiment on SNB-19, in the experiment on SNB-75 and in the experiment with SW-620 was > 52.5 µM (inactive) each time.
As for `C=CNC(=O)NC(=O)CSc1nc(=O)c(-c2ccccc2NC(=O)C(F)(F)F)n[nH]1`, the GI50 in the experiment on A549 was > 100 µM (inactive); with HCC 2998, > 100 µM (inactive); with HCT-15, greater than 100 µM; with IGROV-1, > 100 µM (inactive); with KM12, > 100 µM (inactive); with LOX IMVI, > 100 µM (inactive). For the same molecule, the GI50 was 15.5 µM (inactive) with Malme-3M; 10.7 µM (inactive) with NCI-H226; > 100 µM (inactive) in the experiment on OVCAR-5; > 100 µM (inactive) with OVCAR-8; 47.6 µM (inactive) in the experiment with SK-OV-3; > 100 µM (inactive) in the experiment on SN12C. For the same molecule, the GI50 in the experiment with SNB-19 was 32.2 µM (inactive); with SNB-75, 0.071 µM (active); with SW-620, > 100 µM (inactive).
As for `Cc1c2n(c(=O)[nH]c1=O)C1OC(CO)C(O2)C1O` (configuration not stated), the GI50 is > 100 µM (inactive) in the experiment on A549; greater than 100 µM in the experiment on HCT-15; > 100 µM (inactive) in the experiment with IGROV-1; > 100 µM (inactive) in the experiment with KM12; > 100 µM (inactive) in the experiment with LOX IMVI; > 100 µM (inactive) in the experiment with NCI-H226. In addition, the GI50 in the experiment with OVCAR-8, in the experiment with SK-OV-3, with SN12C, with SNB-19, with SNB-75 and in the experiment with SW-620 was > 100 µM (inactive) each time.
`O=C(c1ccc(Cl)cc1)N(C(=S)N1CCN(c2ccccn2)CC1)C1CCCCC1`: the GI50 in the experiment with A549 is 45.1 µM (inactive); with HCT-15 it was 43.8 µM; with IGROV-1, > 100 µM (inactive); with KM12, 68.1 µM (inactive); in the experiment on LOX IMVI, 56.1 µM (inactive); in the experiment on Malme-3M, > 100 µM (inactive). Further, the GI50 in the experiment with NCI-H226 is 18.2 µM (inactive); in the experiment with OVCAR-5 it was > 100 µM (inactive); in the experiment with OVCAR-8, > 100 µM (inactive); with SK-OV-3 it was > 100 µM (inactive); with SN12C, > 100 µM (inactive); in the experiment with SNB-19, 96.4 µM (inactive). Besides, the GI50 with SNB-75 was > 100 µM (inactive); with SW-620, 83.6 µM (inactive).
For `CCc1c(Cc2[nH]c(Cc3[nH]c(C=O)c(C)c3CC)c(CC)c2CC)[nH]c(C=O)c1C`, the GI50 with A549 is > 100 µM (inactive); with HCC 2998, > 100 µM (inactive); with HCT-15, greater than 100 µM; in the experiment on KM12, > 10 µM (inactive); in the experiment with LOX IMVI, > 100 µM (inactive); in the experiment on Malme-3M it was > 100 µM (inactive). In addition, the GI50 in the experiment on NCI-H226 is > 100 µM (inactive); in the experiment with OVCAR-8, > 100 µM (inactive); with SK-OV-3 it was > 100 µM (inactive); in the experiment with SN12C, > 100 µM (inactive); with SNB-19, > 100 µM (inactive); with SNB-75, 34.6 µM (inactive). In the experiment with SW-620, the GI50 was > 100 µM (inactive).
As to `O=C(O)c1ccccc1/N=N/c1ccc2oc(=O)c(C(=O)Nc3ccccc3)cc2c1`, the GI50 in the experiment on A549 was 40.8 µM (inactive); in the experiment with HCT-15 it was 32.7 µM; in the experiment with IGROV-1, 46.5 µM (inactive); with KM12, 31.8 µM (inactive); in the experiment on LOX IMVI, 35.9 µM (inactive); in the experiment with Malme-3M, 23.7 µM (inactive). The GI50 in the experiment with NCI-H226 is 25.7 µM (inactive); in the experiment with OVCAR-8 it was 38.1 µM (inactive); in the experiment on SK-OV-3, 52.8 µM (inactive); in the experiment on SN12C, 45.1 µM (inactive); in the experiment with SNB-19, 32.3 µM (inactive); in the experiment on SNB-75, 33 µM (inactive). The GI50 with SW-620 is 49.7 µM (inactive).
In the case of `COC(=O)Cc1cc(=O)oc2c1C(=O)CCC2`, the GI50 in the experiment with A549 is > 100 µM (inactive); in the experiment on HCC 2998, > 100 µM (inactive); in the experiment on HCT-15, greater than 100 µM; with IGROV-1 it was > 100 µM (inactive); in the experiment on KM12, > 100 µM (inactive); in the experiment with LOX IMVI it was > 100 µM (inactive). Besides, the GI50 in the experiment on Malme-3M, with NCI-H226, with OVCAR-5, in the experiment on OVCAR-8, with SK-OV-3 and in the experiment with SN12C was > 100 µM (inactive) each time. The values for the GI50 in the experiment with SNB-19, in the experiment on SNB-75 and in the experiment on SW-620 were > 100 µM (inactive), 12.1 µM (inactive) and > 100 µM (inactive), respectively.
Regarding `Cc1c(C(=O)/C=C/c2c(Cl)cccc2Cl)c(=O)n(-c2ccccc2)n1C`, the GI50 in the experiment with A549 was 15.1 µM (inactive); in the experiment on HCC 2998, 23 µM (inactive); with HCT-15, 19.5 µM; in the experiment on IGROV-1, 30.1 µM (inactive); with KM12, 15.9 µM (inactive); with LOX IMVI, 11.8 µM (inactive). Moreover, the GI50 in the experiment on Malme-3M is 53.8 µM (inactive); in the experiment with NCI-H226 it was 21.3 µM (inactive); with OVCAR-5 it was 71.8 µM (inactive); with OVCAR-8, 16.7 µM (inactive); in the experiment with SK-OV-3, 43 µM (inactive); in the experiment with SN12C it was 24.4 µM (inactive). The GI50 in the experiment with SNB-19 is 31.9 µM (inactive); in the experiment with SW-620, 7 µM (inactive).
Regarding `Nc1cc(O)nc(SC2=NC(N)CC(O)C2)n1` (configuration not stated), the GI50 in the experiment on HCC 2998 is > 100 µM (inactive); with HCT-15 it was greater than 100 µM; with IGROV-1, > 100 µM (inactive); in the experiment with KM12 it was > 100 µM (inactive); in the experiment with LOX IMVI, > 100 µM (inactive); in the experiment on Malme-3M, > 100 µM (inactive). In addition, the GI50 in the experiment on NCI-H226, with OVCAR-5, in the experiment on OVCAR-8, with SK-OV-3, in the experiment with SN12C and with SNB-19 was > 100 µM (inactive) in each case. Moreover, the GI50 in the experiment on SNB-75 is > 100 µM (inactive); with SW-620 it was 42.5 µM (inactive).
For the molecule `CCCN(CCCN)/[N+]([O-])=N\O`, the GI50 in the experiment with A549 was > 100 µM (inactive); in the experiment on HCC 2998, > 100 µM (inactive); in the experiment on HCT-15, greater than 100 µM; in the experiment with IGROV-1 it was > 100 µM (inactive); in the experiment on KM12 it was > 100 µM (inactive); in the experiment on Malme-3M, > 100 µM (inactive). The GI50 in the experiment with NCI-H226, in the experiment on OVCAR-5, in the experiment on OVCAR-8, with SK-OV-3, in the experiment on SN12C and with SNB-19 was > 100 µM (inactive) throughout. For the same molecule, the GI50 in the experiment on SNB-75 and in the experiment with SW-620 was > 100 µM (inactive) in each case.
Turning to `COC1(OC)C(N(C)C)=C(Cl)C(=O)/C1=C/C=O`, the GI50 is > 100 µM (inactive) in the experiment on A549; > 100 µM (inactive) with HCC 2998; 98.9 µM in the experiment on HCT-15; > 100 µM (inactive) in the experiment on IGROV-1; 84.7 µM (inactive) in the experiment on LOX IMVI; > 100 µM (inactive) in the experiment with Malme-3M. The GI50 in the experiment on NCI-H226, in the experiment on OVCAR-5, in the experiment with OVCAR-8, in the experiment with SK-OV-3, with SN12C and in the experiment with SNB-19 was > 100 µM (inactive) throughout. Besides, the GI50 in the experiment on SW-620 is 97.1 µM (inactive).
As for `COC1OC(C)C(O)CC1OS(=O)(=O)c1ccc(C)cc1` (configuration not stated), the GI50 with A549 was > 100 µM (inactive); in the experiment on HCT-15, greater than 100 µM; with IGROV-1, > 100 µM (inactive); with KM12 it was > 100 µM (inactive); in the experiment with LOX IMVI, > 100 µM (inactive); with Malme-3M, > 100 µM (inactive). In addition, the GI50 with NCI-H226, with OVCAR-5, with OVCAR-8, with SK-OV-3, with SN12C and with SNB-19 was > 100 µM (inactive) throughout. The GI50 is 37.9 µM (inactive) in the experiment with SNB-75 and > 100 µM (inactive) in the experiment with SW-620.
Consider `CC(C)(C)c1cc(C(P(=O)(O)O)P(=O)(O)O)cc(C(C)(C)C)c1O`, for which the GI50 is > 100 µM (inactive) in the experiment with A549; > 100 µM (inactive) in the experiment with HCC 2998; greater than 100 µM in the experiment on HCT-15; > 100 µM (inactive) in the experiment with IGROV-1; > 100 µM (inactive) in the experiment on KM12; > 100 µM (inactive) in the experiment on LOX IMVI. The GI50 is > 10 µM (inactive) in the experiment with Malme-3M; > 100 µM (inactive) with NCI-H226; > 100 µM (inactive) in the experiment with OVCAR-5; > 100 µM (inactive) in the experiment with OVCAR-8; > 100 µM (inactive) in the experiment with SK-OV-3; > 100 µM (inactive) in the experiment on SNB-19. The GI50 in the experiment on SNB-75 was 95.1 µM (inactive); with SW-620, > 100 µM (inactive).
Consider `Nc1ccn(C2(CO)C=C(CO)C(O)C2O)c(=O)n1` (configuration not stated), for which the GI50 in the experiment on A549 was > 25.8 µM (inactive); with HCC 2998, > 25.8 µM (inactive); in the experiment with HCT-15 it was greater than 25.8 µM; in the experiment with IGROV-1, > 25.8 µM (inactive); in the experiment on KM12, > 25.8 µM (inactive); in the experiment on Malme-3M, > 25.8 µM (inactive). For the same molecule, the GI50 with NCI-H226, in the experiment on OVCAR-8, in the experiment with SK-OV-3, in the experiment on SN12C, in the experiment with SNB-19 and with SNB-75 was > 25.8 µM (inactive) throughout. Besides, the GI50 with SW-620 was > 25.8 µM (inactive).

Source of the values: ChEMBL document CHEMBL1201862, “PubChem BioAssay data set” (2004).
